According to patent publication US10385399B2, “Method for determining clinically relevant hypoxia in cancer” (AARHUS UNIVERSITET, priority 2011, dated 2019):

Experiments:
[1] = tested on: head and neck cancer patients; test: DAHANCA 5 trial: Nimorazole or placebo in conjunction with conventional radiotherapy, loco-regional tumour control; assay type: in vivo, human
Description: In order to test the predictive potential for hypoxic modification of radiotherapy obtained by nitroimidazoles, the 15-gene classifier was applied on all 323 HNSCC biopsies from patients enrolled in the DAHANCA 5 trial. […] Overall, the hypoxia classifier categorized 114 tumours (35%) as “more” hypoxic and 209 tumours (65%) as “less” hypoxic. […] No significant difference in loco-regional tumour control could be detected between the two groups if treatment intervention was ignored (p=0.07), (FIG. 3b). […] This hypothesis could not be supported by the 15-gene hypoxia classifier that identified similar relative distribution of “more” hypoxic tumours among the HPV/p16-positive tumours as among the HPV/p16-negative tumours (Table 5). Thus, it appears that the cause for different prognosis must be searched elsewhere and might be related to a reduced number of radio-resistant cancer stem cells in the HPV/p16-positive tumors.
Hypoxia responsive and pH independent genes were identified by microarray analysis (Affymetrix Human Genome U133 Plus 2.0 Array) of relevant cell lines of squamous cell carcinoma, which were cultured in vitro where microenvironment conditions had been manipulated (0.1% vs. 5% pO2 and 7.4 vs. 6.3 pH). In vivo validation was performed by converting the cell lines into a xenograft model and comparing the gene expression in hypoxic and non-hypoxic tumour areas (Wilcoxon signed rank analysis) guided by a well established hypoxic tracer and [^18F] FAZA. A hypoxia gene expression classifier was build by separating 58 previously hypoxia evaluated formalin fixated paraffin embedded (FFPE) head and neck tumour biopsies into “more” and “less” hypoxic tumours. […] Independent tumours were then to be classified to the group (“more” or “less” hypoxic), in which their gene expression expressed the greatest similarities. The classifier was tested in an independent set of 323 FFPE biopsies of head and neck cancer, were patients had been randomized and treated with either placebo or the hypoxic modifier Nimorazole in conjunction with conventional radiotherapy^4. We verified whether the 15-gene hypoxia classifier could identify a subset of tumours having benefit from Nimorazole in conjunction with radiotherapy, by comparing the clinical outcome and the response to hypoxic modification in the two classified groups with log-rank test, cox-regression analysis and test for interaction.
In vitro experiments were based on human squamous cell carcinoma cell lines UTSCC5, UTSCC14, UTSCC15 (oral carcinoma), FADUDD (hypopharyngeal carcinoma) and SiHa (uterine cervix carcinoma). Xenograft tumours for in vivo validation were generated with cell lines of UTSCC33, FADUDD or SiHa. The hypoxia classifier was generated from 58 previously hypoxia evaluated head and neck cancer biopsies archived as formalin fixated and paraffin embedded samples (FFPE). To test the prognostic and predictive impact of the developed classifier, we used 323 archival supraglottic larynx or pharynx tumour samples (FFPE) from the randomized, double blinded DAHANCA 5 trial.
H, N and M areas of the xenograft tumours were compared with the Wilcoxon's signed rank analysis. End point used in the evaluation of the classifier in the independent data set, was actuarial loco-regional tumour control probability at 5 years, defined as complete and persistent disappearance of the disease in the primary tumour (T site) and regional lymph nodes (N site) after radiotherapy. Failure was recorded in the event of recurrent tumour or if the tumour never completely disappeared. Follow-up was completed as part of the original study. […] Patient and tumour characteristics of the “more” and “less” hypoxic” groups divided by the hypoxia classifier were compared using the Chi Squared test for categorical variables. Loco-regional tumour control in the two groups was illustrated with a Kaplan Meier plot and compared using the log-rank test. […]

[2] = tested on: head and neck cancer patients; conditions: cited from earlier work

Which results are given for `O=[N+]([O-])c1cncn1CCN1CCOCC1` [Nimorazole, 4-[2-(5-nitro-1H-imidazol-1-yl)ethyl]morpholine]?
HR (95% CI) loco-regional tumour control, Nimorazole vs placebo ([1]; Cox multivariate analysis, "Less" hypoxic group by 15-gene hypoxia classifier): 0.97 (0.65-1.44); HR (95% CI) loco-regional tumour control, Nimorazole vs placebo ([1]; Cox multivariate analysis, "More" hypoxic group by 15-gene hypoxia classifier): 0.44 (0.27-0.73); HR (95% CI) loco-regional tumour control, Nimorazole vs placebo ([1]; Cox multivariate analysis, all patients (n = 323)): 0.70 (0.51-0.96); HR (95% CI) loco-regional tumour control, Nimorazole vs placebo ([1]; Univariate analysis, "Less" hypoxic group by 15-gene hypoxia classifier (n = 209)): 0.85 (0.50-1.38); HR (95% CI) loco-regional tumour control, Nimorazole vs placebo ([1]; Univariate analysis, "More" hypoxic group by 15-gene hypoxia classifier (n = 114)): 0.46 (0.29-0.75); HR (95% CI) loco-regional tumour control, Nimorazole vs placebo ([1]; Univariate analysis, all patients (n = 323), with conventional radiotherapy): 0.72 (0.53-0.97); outcome in terms of loco-regional tumour control after radiotherapy vs placebo ([1]; all 323 HNSCC patients, irrespective of hypoxia classification, p=0.03): significantly improved outcome; loco-regional tumour control after 5 years ([1]; group classified as "less" hypoxic, Nimorazole with radiotherapy (vs. 44%, p=0.42)): 50%; loco-regional tumour control after 5 years ([1]; group classified as "more" hypoxic, Nimorazole with radiotherapy (placebo 18%, p=0.002)): 49%; outcome compared to placebo in conjunction with radiotherapy ([2]; DAHANCA 5 trial as described in the background, head and neck cancer patients): improved outcome; effect on loco-regional tumour control of HPV/p16-positive tumors ([2]; HPV/p16-positive tumours, previously shown in the DAHANCA 5 study): without any beneficial effect
